Measurements from publication PMC5078989, “Targeted inhibition of the COP9 signalosome for treatment of cancer” (Nature Communications, 2016).

Test system: panel of cancer cell lines
Test: Cell viability (CellTiter-Glo) dose-response across cancer cell line panel;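 for EC50: after 72 h compound incubation with CellTiter-Glo ATP readout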
Format: cell-based, human
Details: for EC50: Homo sapiens
Text: Next, we explored the effect of CSN5 inhibition on the viability of cancer cells. To obtain a comprehensive picture, we generated dose–response curves with a CSN5 inhibitor across more than 500 cancer cell lines in a previously described standardized setting[47] (Supplementary Data 1).
A standardized CellTiter-Glo Assay (Promega #G7570) based on the quantification of ATP was applied according to the manufacturer's protocol to measure the amount of viable cells in culture. In brief, cells were seeded into 384-well plates at optimal density for each cell line. After 4 h, compounds were added at different concentrations in growth medium and incubated for another 72 h in a humidifying chamber at 37 °C and 5% CO2. […] EC50 values were calculated from the plot of percentage of inhibition versus inhibitor concentration using the nonlinear regression analysis software Origin 7.5SR6 (OriginLab Corp.).

NS(=O)(=O)OC[C@@H]1C[C@@H](n2ccc3c(N[C@H]4CCc5ccccc54)ncnc32)C[C@@H]1O [MLN4924]
AMAX (A4/Fuk): -96.9287 | AMAX (A101D): -92.8172 | AMAX (A549): -65.6237 | AMAX (A-704): -78.0973 | AMAX (AM-38): -93.2889 | AMAX (AU565): -66.5254 | AMAX (AsPC-1): -50.1525 | AMAX (BFTC-909): -84.6841 | AMAX (BHY): -77.3535 | AMAX (BICR 6): -87.6265 | AMAX (BICR 16): -96.2639 | AMAX (C32): -75.1217 | AMAX (COLO 201): -80.4634 | AMAX (Caki-1): -69.6053 | AMAX (FaDu): -85.8426 | AMAX (GP2d): -76.2986 | AMAX (HARA): -86.2104 | AMAX (HCC1143): -80.6145 | AMAX (HCC-15): -95.7573 | AMAX (HD-MY-Z): -88.7975 | AMAX (HEC-151): -95.1252 | AMAX (HEL): -97.9201 | AMAX (HLC-1): -88.3206 | AMAX (HLF): -88.8149 | AMAX (HSC-4): -89.1597 | AMAX (Hep3B): -41.8233 | EC50 (59M): 631 nM | EC50 (92.1): 213 nM | EC50 (639-V): 191 nM | EC50 697: 373 nM | EC50 (769-P): 199 nM | EC50 (786-0, 786-O): 373 nM | EC50 (1321-N1, 1321N1): 304 nM | EC50 (8505C): 271 nM | EC50 (A4/Fuk): 340 nM | EC50 (A101D): 403 nM | EC50 (A 172, A172): 180 nM | EC50 (A204, A-204): 267 nM | EC50 (A498, A-498): 245 nM | EC50 (A549, A549): 3600 nM | EC50 (A673, A-673): 88.1 nM | EC50 (A704, A-704): 622 nM | EC50 (A2058, A2058): 316 nM | EC50 (A2780, A2780): 330 nM | EC50 (A-375, A-375): 281 nM | EC50 (ACC-MESO-1, ACC-MESO-1): 1560 nM | EC50 (AM-38, AM-38): 297 nM | EC50 (AML-193): 901 nM | EC50 (AN3-CA, AN3 CA): 309 nM | EC50 (AU565, AU565): 505 nM | EC50 (BC-3C): 1970 nM | EC50 (BEN): 1100 nM | EC50 (BFTC-909, BFTC-909): 650 nM | EC50 (BHY): 1870 nM | EC50 (BICR 6): 181 nM | EC50 (BICR 16): 220 nM | EC50 (BICR 18): 11500 nM | EC50 (BICR 31): 156 nM | EC50 (BT-16, BT-16): 98 nM | EC50 (BT-474, BT-474): 871 nM | EC50 (BT-549, BT-549): 382 nM | EC50 (BXPC-3, BxPC-3): 530 nM | EC50 (C3A): > 30000 nM | EC50 (C32, C32): 1140 nM | EC50 (CAKI-1, Caki-1): 327 nM | EC50 (CAKI-2, Caki-2): 2360 nM | EC50 (CAL-12T): 1210 nM | EC50 (CAL-27, CAL 27): 161 nM | EC50 (CAL-29): 283 nM | EC50 (CAL-54, CAL-54): 772 nM | EC50 (CAL-85-1, CAL-85-1): 144 nM | EC50 (CAL-120, CAL-120): 154 nM | EC50 (CAL-148, CAL-148): > 30000 nM | EC50 (CAMA-1, CAMA-1): 94.3 nM | EC50 (CAPAN-1, Capan-1): 301 nM | EC50 (CAS-1): 14000 nM | EC50 (CCRF-HSB-2, CCRF-HSB-2): 296 nM | EC50 (CEM/C1, CEMC1): 257 nM | EC50 (CFPAC-1, CFPAC-1): 703 nM | EC50 (CL-34): 89.6 nM | EC50 (CMK): 138 nM | EC50 (CMK-86, CMK-86): 230 nM | EC50 (COLO 201, COLO 201): 268 nM | EC50 (COLO 205, COLO 205): 268 nM | EC50 (COLO 320, COLO-320): 883 nM | EC50 (COLO 699, COLO-699): 890 nM | EC50 (COLO 704, COLO-704): 384 nM | EC50 (COLO-678, COLO-678): 4890 nM | EC50 (COLO-679, COLO-679): 133 nM | EC50 (COLO-741, COLO 741): 130 nM | EC50 (COLO-829, COLO 829): 319 nM | EC50 (COR-L23, COR-L23): 1660 nM | EC50 (COR-L47, COR-L47): 49.6 nM | EC50 (COR-L105, COR-L105): 469 nM | EC50 (COV362, COV362): 175 nM | EC50 (COV644): 23600 nM | EC50 (CW-2, CW-2): 6310 nM | EC50 (Calu-1, Calu-1): 2340 nM | EC50 (Calu-6, Calu-6): 294 nM | EC50 (ChaGo-K-1, ChaGo-K-1): 778 nM | EC50 (Ci-1, CI-1): 28.2 nM | EC50 (DAN-G): 4140 nM | EC50 (DB): 732 nM | EC50 (DLD-1, DLD-1): 641 nM | EC50 (DMS-53, DMS 53): 22800 nM | EC50 (DMS-153, DMS 153): 42.9 nM | EC50 (DMS-273, DMS 273): 958 nM | EC50 (DND41, DND-41): 513 nM | EC50 (DU-4475, DU4475): 99.4 nM | EC50 (Daoy): 240 nM | EC50 (Detroit 562, Detroit 562): 478 nM | EC50 (EBC-1, EBC-1): 341 nM | EC50 (EFM-19, EFM-19): 1390 nM | EC50 (EOL1, EOL-1): 65.3 nM | EC50 (FaDu): 231 nM | EC50 (G-401, G-401): 1550 nM | EC50 (G-402, G-402): 811 nM | EC50 (GAMG): 373 nM | EC50 (GB-1, GB-1): 479 nM | EC50 (GDM-1, GDM-1): 188 nM | EC50 (GI-1, GI-1): 207 nM | EC50 (GP2d): 759 nM | EC50 (Granta-519, GRANTA-519): 117 nM | EC50 (H4): 229 nM | EC50 (HARA): 640 nM | EC50 (HCC15, HCC-15): 414 nM | EC50 (HCC44, HCC-44): 167 nM | EC50 (HCC70, HCC70): 390 nM | EC50 (HCC78, HCC-78): 183 nM | EC50 (HCC95, HCC-95): 105 nM | EC50 (HCC827, HCC827): 7720 nM | EC50 (HCC1143, HCC1143): 1670 nM | EC50 (HCC1187, HCC1187): 348 nM | EC50 (HCC1500, HCC1500): 6580 nM | EC50 (HCC1588, HCC-1588): 1370 nM | EC50 (HCC1806, HCC1806): 70.1 nM | EC50 (HCC1954, HCC1954): 417 nM | EC50 (HCC4006, HCC4006): 1530 nM | EC50 (HCC-56): 2460 nM | EC50 (HCC-1359): 375 nM | EC50 (HCC-1833): 2350 nM | EC50 (HCT-15, HCT-15): 934 nM | EC50 (HD-MY-Z): 124 nM | EC50 (HEC-50B): 961 nM | EC50 (HEC-151): 225 nM
